Data from patent US10731159B2, “Cationic lipid” (DAIICHI SANKYO COMPANY, LIMITED, priority 2013, dated 2020).

Assays:
Format in all cases: cell-based
[1] = tested on: human hepatocellular carcinoma HuH-7 cell line; assay: Test Example 11: expression level of luciferase (FLuc mRNA) in HuH-7 cells; conditions: six hours after transfection; for expression level of luciferase, RLU: average N=3
Protocol: The concentration of a human hepatocellular carcinoma HuH-7 cell line was adjusted to 10,000 cells/mL in a DMEM medium (manufactured by Invitrogen Corp.) containing 10% fetal bovine serum (culture medium). Then, the resulting culture solution was inoculated at 100 μL/well to a 96-well flat-bottomed plate (manufactured by Corning Inc./Falcon) and cultured at 37° C. for 1 day under 5.0% CO2. The nucleic acid lipid particle dispersion prepared in Example 58 was diluted with a culture medium to prepare dilution series having final mRNA concentrations of 2, 0.4, and 0.08 μg/mL in the medium. Then, each dilution was added to the cells after removal of the culture supernatant, and the culture was further continued. This operation was performed at N=3 for each concentration. A control group was cultured in only a culture medium.
Six hours after the transfection, the expression level of luciferase was measured using Luciferase reporter Gene Assay, high sensitivity (manufactured by F. Hoffmann-La Roche, Ltd.) according to the attached document.

[2] = tested on: human β-catenin gene; assay: Test Example 1: β-catenin gene expression inhibition in SW480 cells, 3 days, real-time PCR; conditions: nucleic acid lipid particle of Example 31 containing the named lipid, double-stranded polynucleotide concentration, read-out: β-catenin gene expression inhibitory activity IC50
Protocol: As described below, the strength of human β-catenin gene expression inhibitory activity was compared among nucleic acid lipid particles each prepared using a novel lipid.
(§1) The concentration of a human colorectal cancer SW480 cell line (derived from human colorectal adenocarcinoma) was adjusted to 50,000 cells/mL in an RPMI1640 medium (manufactured by Invitrogen Corp.) containing 10% fetal bovine serum (culture medium). Then, the resulting culture solution was inoculated at 100 μL/well to a 96-well flat-bottomed plate (manufactured by Corning Inc./Falcon) and cultured at 37° C. for 1 day under 5.0% CO2. The nucleic acid lipid particle dispersion prepared in Example 31 was diluted with a culture medium to prepare dilution series having final double-stranded polynucleotide concentrations of 30, 3.0, 0.3, and 0.03 nM in the medium. Then, each dilution was added to the cells after removal of the culture supernatant, and the culture was further continued for 3 days. This operation was performed at N=3 for each concentration.
(§2) A lysate and cDNA for real-time PCR measurement were prepared from the transfected cells using TaqMan® Fast-Cells-to-Ct kit (Life Technologies, Inc./Ambion) according to the instruction manual. In the lysate preparation, Lysis Solution supplemented with DNase I was used. The probes for real-time PCR used were TaqMan® Gene Expression Assays (CTNNB1, FAM probe) (Hs00355045_m1, manufactured by Applied Biosystems, Inc.) for the human β-catenin gene and a human GAPDH gene probe as an internal standard (VIC probe, Hs99999905_m1, manufactured by Applied Biosystems, Inc.). 5 μL of TaqMan® Fast Advanced Master Mix, 2 μL of RNase-Free Water, 0.5 μL of each gene probe, and 2 μL of the prepared cDNA solution were added per well of a 384-well PCR plate (manufactured by Applied Biosystems, Inc.) to bring the total amount to 10 μL, which was then loaded in ViiA™ 7 Real-time PCR system (manufactured by Applied Biosystems, Inc.) and subjected to PCR under conditions given below. The real-time PCR was carried out at N=4 for the cDNA prepared from the lysate.
PCR initial activation: 95° C. for 20 seconds
PCR: 95° C. for 1 second • 62° C. for 20 seconds
This PCR cycle was repetitively performed 40 times.
(§3) The quantitative analysis was conducted by the ΔΔCt method.

[3] = tested on: human β-catenin gene; assay: Test Example 8: β-catenin gene expression inhibition in SW480 cells, procedures of Test Example 3, 50-0.05 nM; conditions: procedures of Test Example 3, 50, 5, 0.5, 0.05 nM, particles of Example 55, read-out: β-catenin gene expression inhibitory activity IC50
Protocol: as §1, with “to 50000” for “to 50,000”, “in a” for “in an”, “lipid particle-containing” for “lipid particle”, “30, 3,” for “30, 3.0,”, “for 4 hours.” for “for 3 days.”
as §2, §3
By the same procedures as in Test Example 3, SW480 cells were treated with 50 nM, 5 nM, 0.5 nM, and 0.05 nM each of nucleic acid lipid particles each prepared using a novel lipid, and the strength of human β-catenin gene expression inhibitory activity was compared among these particles.

Compound	expression level of luciferase, RLU ([1]; FLuc mRNA concentration 0.08 μg/mL)	expression level of luciferase, RLU ([1]; FLuc mRNA concentration 0.4 μg/mL)	expression level of luciferase, RLU ([1]; FLuc mRNA concentration 2.0 μg/mL)	expression of FLuc (in words) ([1]; particle of Example 58)	IC50 [2] [nM]	IC50 [3] [nM]
CCCCC/C=C\C/C=C\CCCCCCCC(CCCCCCCCCC)OC(=O)OCCCN(C)C (stereo not drawn) [Example 8, 3-Dimethylaminopropyl(9Z,12Z)-octacosa-19,22-dien-11-yl Carbonate]	0.7 1 × 10^5	2.7 1 × 10^5	3.7 1 × 10^5	promote the expression of FLuc		
CCCCC/C=C\C/C=C\CCCCCCCCC(CCCCCCCC/C=C\C/C=C\CCCCC)OC(=O)OCCN(C)C [Reference Example 2, 2-(Dimethylamino)ethyl(6Z,9Z,28Z,31Z)-heptatriaconta-6,9,28,31-tetraen-19-yl Carbonate, reference compound]					> 30	> 50
